Key:
SARS-CoV-2 M^pro [1] = molecular target: T1, SARS-CoV-2 M^pro (Severe acute respiratory syndrome coronavirus 2, UniProt P0DTD1); format: biochemical
[2] = molecular target: SARS-CoV-2 papain-like protease (PL^pro) (Severe acute respiratory syndrome coronavirus 2, UniProt P0DTD1); test: SARS-CoV-2 PLpro enzyme inhibition screening; format: biochemical
hCatB = hCatB (Homo sapiens, UniProt P07858); test: hCatB enzyme inhibition assay; format: biochemical; conditions: hCatB vs hCatL
[3] = molecular target: T2, dengue virus NS2B/NS3 serine protease (Dengue virus type 2, UniProt P29990); test: Dengue virus NS2B/NS3 protease inhibition screening; format: biochemical, dengue virus 2
T2 sequence (P29990 1476-1653 limits assumed): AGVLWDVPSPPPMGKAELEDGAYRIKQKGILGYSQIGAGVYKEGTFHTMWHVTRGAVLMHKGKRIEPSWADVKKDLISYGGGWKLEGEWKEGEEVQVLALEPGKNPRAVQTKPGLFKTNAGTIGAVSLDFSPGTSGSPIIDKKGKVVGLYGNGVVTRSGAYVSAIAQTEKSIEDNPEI

SARS-CoV-2 M^pro [4] = molecular target: T1, SARS-CoV-2 M^pro; format: biochemical; conditions: inhibitor at 10-fold IC50, 60 min incubation, 25 h of dialysis

Row | SMILES | binding affinity to SARS-CoV-2 M^pro, fold lower with respect to SPR38 (SARS-CoV-2 M^pro [1]) [fold] | inhibition of SARS-CoV-2 PL^pro at 100 μM [2] | Ki hCatB fold higher compared to Ki hCatL (hCatB) [fold] | inhibitory activity against dengue virus NS2B/NS3 serine protease at 100 μM [3] | enzymatic activity of M^pro recovered after dialysis (SARS-CoV-2 M^pro [4])
1 | CCC[C@H](NC(=O)OCc1ccccc1)C(=O)N[C@H](/C=C/C(C)=O)C[C@@H]1CCNC1=O [SPR35, Benzyl ((S)-1-oxo-1-(((S,E)-5-oxo-1-((S)-2-oxopyrrolidin-3-yl)hex-3-en-2-yl)amino)pentan-2-yl)carbamate] | ~7 |  |  |  | 
2 | CCCC[C@H](NC(=O)OCc1ccccc1)C(=O)N[C@H](/C=C/C(C)=O)C[C@@H]1CCNC1=O [SPR38, Benzyl ((S)-1-oxo-1-(((S,E)-5-oxo-1-((S)-2-oxopyrrolidin-3-yl)hex-3-en-2-yl)amino)hexan-2-yl)carbamate] |  | no inhibition | ~2 | no inhibitory activity | 
3 | CC(=O)/C=C/[C@H](C[C@@H]1CCNC1=O)NC(=O)[C@H](CC1CC1)NC(=O)OCc1ccccc1 [SPR39, Benzyl ((S)-3-cyclopropyl-1-oxo-1-(((S,E)-5-oxo-1-((S)-2-oxopyrrolidin-3-yl)hex-3-en-2-yl)amino)propan-2-yl)carbamate] |  | no inhibition | ~6 | no inhibitory activity | did not show recovering enzymatic activities
4 | CC(=O)/C=C/[C@H](C[C@@H]1CCNC1=O)NC(=O)[C@H](CC1CCCCC1)NC(=O)OCc1ccccc1 [SPR41, Benzyl ((S)-3-cyclohexyl-1-oxo-1-(((S,E)-5-oxo-1-((S)-2-oxopyrrolidin-3-yl)hex-3-en-2-yl)amino)propan-2-yl)carbamate] |  | no inhibition |  | no inhibitory activity | did not show recovering enzymatic activities

Reference: article PMC9751013 (European Journal of Medicinal Chemistry, 2022)
